Legend:
Carbonic anhydrase 9 = Carbonic anhydrase 9 (Homo sapiens, UniProt Q16790); test: Inhibition of recombinant human carbonic anhydrase 9 by stopped flow CO2 hydrase assay
Carbonic anhydrase 1 = Carbonic anhydrase 1 (Homo sapiens, UniProt P00915); test: Inhibition of recombinant human carbonic anhydrase 1 by stopped flow CO2 hydrase assay
Carbonic anhydrase 2 = Carbonic anhydrase 2 (Homo sapiens, UniProt P00918); test: Inhibition of recombinant human carbonic anhydrase 2 by stopped flow CO2 hydrase assay
Carbonic anhydrase 13 = Carbonic anhydrase 13 (Homo sapiens, UniProt Q8N1Q1); test: Inhibition of recombinant human carbonic anhydrase 13 by stopped flow CO2 hydrase assay
Sequence of Carbonic anhydrase 13 (Q8N1Q1 whole entry): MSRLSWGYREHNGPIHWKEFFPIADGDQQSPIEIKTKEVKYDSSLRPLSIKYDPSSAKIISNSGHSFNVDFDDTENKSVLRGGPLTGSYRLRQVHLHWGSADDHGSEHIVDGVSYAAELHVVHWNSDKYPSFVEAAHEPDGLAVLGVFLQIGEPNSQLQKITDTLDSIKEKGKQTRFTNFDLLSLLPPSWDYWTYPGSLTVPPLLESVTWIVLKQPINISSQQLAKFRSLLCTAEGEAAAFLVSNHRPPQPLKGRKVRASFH

Sequence of Carbonic anhydrase 1 (P00915 whole entry): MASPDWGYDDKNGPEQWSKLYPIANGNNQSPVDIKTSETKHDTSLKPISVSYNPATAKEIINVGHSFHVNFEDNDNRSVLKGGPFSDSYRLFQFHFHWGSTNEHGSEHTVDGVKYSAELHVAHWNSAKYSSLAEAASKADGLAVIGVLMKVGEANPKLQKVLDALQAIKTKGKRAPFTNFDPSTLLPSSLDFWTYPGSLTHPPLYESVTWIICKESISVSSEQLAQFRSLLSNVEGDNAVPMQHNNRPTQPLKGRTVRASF

SMILES	Ki (Carbonic anhydrase 9) [µM]	Ki (Carbonic anhydrase 1) [µM]	Ki (Carbonic anhydrase 2) [µM]	Ki (Carbonic anhydrase 13) [µM]
NS(=O)(=O)c1cccc(-c2nnc(-c3ccc(Cl)cc3Cl)o2)c1	0.0763			
Cc1ccc(-c2nnc(-c3cccc([N+](=O)[O-])c3)o2)cc1S(N)(=O)=O	> 10	> 10	> 10	> 10
COc1ccc(-c2nnc(-c3ccc(OC)c(S(N)(=O)=O)c3)o2)c(OC)c1	> 10	> 10	> 10	> 10
COc1ccc(-c2nnc(-c3ccccc3)o2)cc1S(N)(=O)=O	> 10	> 10	> 10	> 10
Cc1ccc(-c2nnc(-c3ccc(Cl)cc3Cl)o2)cc1S(N)(=O)=O	> 10	> 10	> 10	> 10
Cc1ccc(-c2nnc(-c3ccccc3)o2)cc1S(N)(=O)=O	> 10	> 10	> 10	> 10
NS(=O)(=O)c1cccc(-c2nnc(-c3cccs3)o2)c1	0.0853			
NS(=O)(=O)c1cccc(-c2nnc(-c3ccccc3)o2)c1	0.108			
NS(=O)(=O)c1cccc(-c2nnc(-c3ccc(Cl)cc3)o2)c1	0.0545			
COc1ccc(OC)c(-c2nnc(-c3cccc(S(N)(=O)=O)c3)o2)c1	0.0768			
COc1cc(-c2nnc(-c3cccc(S(N)(=O)=O)c3)o2)cc(OC)c1OC	0.0683			
NS(=O)(=O)c1cccc(-c2nnc(-c3cccc([N+](=O)[O-])c3)o2)c1	0.044			
N#Cc1ccc(-c2nnc(-c3cccc(S(N)(=O)=O)c3)o2)cc1	0.0763			
NS(=O)(=O)c1cccc(-c2nnc(-c3ccc([N+](=O)[O-])cc3)o2)c1	0.0571			
Cc1ccc(-c2nnc(-c3ccc(Cl)cc3)o2)cc1S(N)(=O)=O	> 10	> 10	> 10	> 10
Cc1ccc(-c2nnc(-c3ccc(C#N)cc3)o2)cc1S(N)(=O)=O	> 10	> 10	> 10	> 10
COc1ccc(-c2nnc(-c3ccc(C)c(S(N)(=O)=O)c3)o2)c(OC)c1	> 10	> 10	> 10	> 10
COc1ccc(-c2nnc(-c3cccc(S(N)(=O)=O)c3)o2)c(OC)c1	0.0822			
COc1ccc(-c2nnc(-c3cccc([N+](=O)[O-])c3)o2)cc1S(N)(=O)=O	> 10	> 10	> 10	> 10
